Source: the supplement of paper PMC10307832

What was measured:
Assay in all cases: relative viability (nuclei count vs DMSO), 5 days (fraction); higher = more cells survive
LK-2 = test system: LK-2
How it was run: (§1)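 Five library-drug doses in √10 steps were combined with a fixed anchor-drug dose, or a single drug was given alone, by pin tool to lung cancer cell lines in 1536-well plates the day after seeding. Nuclei were stained and counted after 5 days. Relative viability is the nuclei count in treated wells over that in vehicle wells, taken as the median of duplicate plates.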

NCI-H522 = test system: NCI-H522
How it was run: as §1

NCI-H1648 = test system: NCI-H1648
How it was run: as §1

LCLC-103H = test system: LCLC-103H
How it was run: as §1

NCI-H1355 = test system: NCI-H1355
How it was run: as §1

NCI-H1666 = test system: NCI-H1666
How it was run: as §1

NCI-H1703 = test system: NCI-H1703
How it was run: as §1

IA-LM = test system: IA-LM
How it was run: as §1

COR-L 105 = test system: COR-L 105
How it was run: as §1

NCI-H520 = test system: NCI-H520
How it was run: as §1

Nc1ccn([C@@H]2O[C@H](CO)[C@@H](O)[C@@H]2O)c(=O)n1 [Cytarabine] + NC(=O)Nc1cc(-c2cccc(F)c2)sc1C(=O)N[C@H]1CCCNC1 [AZD7762] (partner 0.2 µM)
relative viability (LK-2; first compound 0.005 µM): 0.3 | relative viability (LK-2; first compound 0.01581 µM): 0.13 | relative viability (LK-2; first compound 0.05 µM): 0.0997 | relative viability (LK-2; first compound 0.1581 µM): 0.0979 | relative viability (LK-2; first compound 0.5 µM): 0.12 | relative viability (NCI-H522; first compound 0.005 µM): 0.827 | relative viability (NCI-H522; first compound 0.01581 µM): 0.605 | relative viability (NCI-H522; first compound 0.05 µM): 0.72 | relative viability (NCI-H522; first compound 0.1581 µM): 0.426 | relative viability (NCI-H522; first compound 0.5 µM): 0.34 | relative viability (NCI-H1648; first compound 0.005 µM): 0.647 | relative viability (NCI-H1648; first compound 0.01581 µM): 0.882 | relative viability (NCI-H1648; first compound 0.05 µM): 0.73 | relative viability (NCI-H1648; first compound 0.1581 µM): 0.527 | relative viability (NCI-H1648; first compound 0.5 µM): 0.401 | relative viability (LCLC-103H; first compound 0.005 µM): 0.763 | relative viability (LCLC-103H; first compound 0.01581 µM): 0.704 | relative viability (LCLC-103H; first compound 0.05 µM): 0.751 | relative viability (LCLC-103H; first compound 0.1581 µM): 0.469 | relative viability (LCLC-103H; first compound 0.5 µM): 0.369 | relative viability (NCI-H1355; first compound 0.005 µM): 0.455 | relative viability (NCI-H1355; first compound 0.01581 µM): 0.455 | relative viability (NCI-H1355; first compound 0.05 µM): 0.356 | relative viability (NCI-H1355; first compound 0.1581 µM): 0.181 | relative viability (NCI-H1355; first compound 0.5 µM): 0.188 | relative viability (NCI-H1666; first compound 0.005 µM): 0.943 | relative viability (NCI-H1666; first compound 0.01581 µM): 0.768 | relative viability (NCI-H1666; first compound 0.05 µM): 0.666 | relative viability (NCI-H1666; first compound 0.1581 µM): 0.444 | relative viability (NCI-H1666; first compound 0.5 µM): 0.413 | relative viability (NCI-H1703; first compound 0.005 µM): 0.108 | relative viability (NCI-H1703; first compound 0.01581 µM): 0.121 | relative viability (NCI-H1703; first compound 0.05 µM): 0.103 | relative viability (NCI-H1703; first compound 0.1581 µM): 0.124 | relative viability (NCI-H1703; first compound 0.5 µM): 0.13

CC(=O)O[C@@]12CO[C@@H]1C[C@H](O)[C@@]1(C)C(=O)[C@H](O)C3=C(C)[C@@H](OC(=O)[C@H](O)[C@@H](NC(=O)OC(C)(C)C)c4ccccc4)C[C@@](O)([C@@H](OC(=O)c4ccccc4)[C@H]21)C3(C)C [Docetaxel] + O=C(CCCCCCC(=O)Nc1ccccc1)NO [Vorinostat] (partner 1 µM)
relative viability (LK-2; first compound 0.0002 µM): 0.313 | relative viability (LK-2; first compound 0.000632 µM): 0.217 | relative viability (LK-2; first compound 0.002 µM): 0.15 | relative viability (LK-2; first compound 0.006325 µM): 0.183 | relative viability (LK-2; first compound 0.02 µM): 0.152 | relative viability (NCI-H522; first compound 0.0002 µM): 0.852 | relative viability (NCI-H522; first compound 0.000632 µM): 0.899 | relative viability (NCI-H522; first compound 0.002 µM): 0.713 | relative viability (NCI-H522; first compound 0.006325 µM): 0.516 | relative viability (NCI-H522; first compound 0.02 µM): 0.344 | relative viability (NCI-H1648; first compound 0.0002 µM): 0.487 | relative viability (NCI-H1648; first compound 0.000632 µM): 0.378 | relative viability (NCI-H1648; first compound 0.002 µM): 0.255 | relative viability (NCI-H1648; first compound 0.006325 µM): 0.301 | relative viability (NCI-H1648; first compound 0.02 µM): 0.155 | relative viability (LCLC-103H; first compound 0.0002 µM): 0.703 | relative viability (LCLC-103H; first compound 0.000632 µM): 0.695 | relative viability (LCLC-103H; first compound 0.002 µM): 0.513 | relative viability (LCLC-103H; first compound 0.006325 µM): 0.604 | relative viability (LCLC-103H; first compound 0.02 µM): 0.47 | relative viability (NCI-H1355; first compound 0.0002 µM): 0.631 | relative viability (NCI-H1355; first compound 0.000632 µM): 0.626 | relative viability (NCI-H1355; first compound 0.002 µM): 0.382 | relative viability (NCI-H1355; first compound 0.006325 µM): 0.244 | relative viability (NCI-H1355; first compound 0.02 µM): 0.176 | relative viability (NCI-H1666; first compound 0.0002 µM): 0.893 | relative viability (NCI-H1666; first compound 0.000632 µM): 0.992 | relative viability (NCI-H1666; first compound 0.002 µM): 0.681 | relative viability (NCI-H1666; first compound 0.006325 µM): 0.706 | relative viability (NCI-H1666; first compound 0.02 µM): 0.47 | relative viability (IA-LM; first compound 0.0002 µM): 0.723 | relative viability (IA-LM; first compound 0.000632 µM): 0.328 | relative viability (IA-LM; first compound 0.002 µM): 0.145 | relative viability (IA-LM; first compound 0.006325 µM): 0.0958 | relative viability (IA-LM; first compound 0.02 µM): 0.0566 | relative viability (COR-L 105; first compound 0.0002 µM): 0.889 | relative viability (COR-L 105; first compound 0.000632 µM): 0.747 | relative viability (COR-L 105; first compound 0.002 µM): 0.392 | relative viability (COR-L 105; first compound 0.006325 µM): 0.413 | relative viability (COR-L 105; first compound 0.02 µM): 0.368 | relative viability (NCI-H520; first compound 0.0002 µM): 0.714 | relative viability (NCI-H520; first compound 0.000632 µM): 0.463 | relative viability (NCI-H520; first compound 0.002 µM): 0.281 | relative viability (NCI-H520; first compound 0.006325 µM): 0.187 | relative viability (NCI-H520; first compound 0.02 µM): 0.158
